Like-named read-outs stand apart in the source and are kept apart here.
Columns and labels:
NDM-1 = NDM-1 (Klebsiella pneumoniae, UniProt C7C422); assay: biochemical; type: biochemical; conditions: NDM-1 enzyme, CCF2-FA fluorescence assay; read-out: NDM-1 IC50
IMP-1 = IMP-1 (Serratia marcescens, UniProt P52699); assay: biochemical; type: biochemical; conditions: IMP-1 enzyme, CCF2-FA fluorescence assay; read-out: IMP-1 IC50
VIM-1 = VIM-1 (Pseudomonas aeruginosa (strain ATCC 15692 / DSM 22644 / CIP 104116 / JCM 14847 / LMG 12228 / 1C / PRS 101 / PAO1), UniProt A0A0F7KYQ8); assay: Enzyme activity: determination of IC50, fluorescence assay with CCF2-FA substrate (VIM-1); type: biochemical; conditions: CCF2-FA fluorescence assay
[1] = system: Escherichia coli expressing NDM-1 (CLB30016); assay: Antibiotic potentiation activity: synergistic concentration (MITC95) with imipenem, OD600 growth; type: cell-based; conditions: Escherichia coli expressing NDM-1 (CLB30016), 95% growth inhibition
Procedure, shortened: (§1)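 In 1.1× CAMHB, clinical isolates from overnight plates were challenged with test compound alongside imipenem at an assay concentration of 4 μg/ml, sometimes 1 μg/ml. Plates sat covered at 35 °C for 22–24 h prior to spectrophotometric reading.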

[2] = system: Klebsiella pneumoniae expressing VIM-1 (IHMA599644); assay: as above; type: cell-based; conditions: Klebsiella pneumoniae expressing VIM-1 (IHMA599644), 95% growth inhibition
Procedure, shortened: as §1

[3] = system: Serratia marcescens expressing IMP-1 (CL5741); assay: as above; type: cell-based; conditions: Serratia marcescens expressing IMP-1 (CL5741), 95% growth inhibition
Procedure, shortened: as §1

[4] = VIM-1 enzyme, read-out: VIM-1 IC50

Chain of NDM-1 (C7C422 whole entry, looked up, species assumed): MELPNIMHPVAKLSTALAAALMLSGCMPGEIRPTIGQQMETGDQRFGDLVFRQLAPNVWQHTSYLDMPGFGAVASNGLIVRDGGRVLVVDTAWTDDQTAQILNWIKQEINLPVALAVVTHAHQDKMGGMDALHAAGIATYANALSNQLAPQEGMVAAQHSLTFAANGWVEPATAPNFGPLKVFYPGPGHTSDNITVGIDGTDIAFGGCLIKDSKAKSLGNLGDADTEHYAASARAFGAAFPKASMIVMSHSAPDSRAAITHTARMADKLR
Chain of IMP-1 (P52699 whole entry, looked up): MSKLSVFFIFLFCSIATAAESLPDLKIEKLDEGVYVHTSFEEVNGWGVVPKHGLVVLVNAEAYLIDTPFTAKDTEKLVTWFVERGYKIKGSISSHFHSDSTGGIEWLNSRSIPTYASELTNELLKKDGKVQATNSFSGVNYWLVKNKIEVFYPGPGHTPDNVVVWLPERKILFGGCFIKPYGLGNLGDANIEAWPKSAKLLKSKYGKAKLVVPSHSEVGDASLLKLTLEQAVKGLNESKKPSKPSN

SMILES	IC50 (NDM-1) [nM]	IC50 (IMP-1) [nM]	IC50 (VIM-1; [4]) [nM]	Escherichia coli MITC95 [1] [µM]	Klebsiella pneumoniae MITC95 [2] [µM]	Serratia marcescens MITC95 [3] [µM]	IC50 (VIM-1; VIM-1 IC50, VIM-1 enzyme) [nM]
NS(=O)(=O)c1cccc(-c2cnc3ccccn23)c1-c1nnn[nH]1 [Example 404, 3-imidazo[1,2-a]pyridin-3-yl-2-(1H-tetrazol-5-yl)benzenesulfonamide]	0.817	71.4	5.41	0.0625	2.563	1.708	
NS(=O)(=O)c1cccc(-c2ccc3nccnc3c2)c1-c1nnn[nH]1 [Example 405, 3-quinoxalin-6-yl-2-(1H-tetrazol-5-yl)benzenesulfonamide]	4.23	67.6	16.9	1.563	62.5	1.563	
NS(=O)(=O)c1cccc(-c2ccnc3ncccc23)c1-c1nnn[nH]1 [Example 406, 3-(1,8-naphthyridin-4-yl)-2-(1H-tetrazol-5-yl)benzenesulfonamide]	1.65	250	1.74	1.172	3.125	6.25	
NS(=O)(=O)c1cccc(-c2ccc3cnccc3c2)c1-c1nnn[nH]1 [Example 408, 3-(6-isoquinolyl)-2-(1H-tetrazol-5-yl)benzenesulfonamide]	1.38	84.3	14.9	0.3906	75	4.688	
NS(=O)(=O)c1cccc(-c2csc(-c3ccncc3)n2)c1-c1nnn[nH]1 [Example 409, 3-[2-(4-pyridyl)thiazol-4-yl]-2-(1H-tetrazol-5-yl)benzenesulfonamide]	26.9	445	237	1.563	>200	12.5	
NS(=O)(=O)c1cccc(-c2cc3ccncc3s2)c1-c1nnn[nH]1 [Example 410, 2-(1H-tetrazol-5-yl)-3-thieno[2,3-c]pyridin-2-yl-benzenesulfonamide]	4.11	107	19.2	0.5859	18.75	3.125	
NS(=O)(=O)c1cccc(-c2cc3cnccc3s2)c1-c1nnn[nH]1 [Example 411, 2-(1H-tetrazol-5-yl)-3-thieno[3,2-c]pyridin-2-yl-benzenesulfonamide]	4.84	102	27.8	0.7813	25	3.125	
Nc1ccnc2cc(-c3cccc(S(N)(=O)=O)c3-c3nnn[nH]3)ccc12 [Example 412, 3-(4-amino-7-quinolyl)-2-(1H-tetrazol-5-yl)benzenesulfonamide]	25.9	1390	25.8	0.3906	3.125	25	
NS(=O)(=O)c1cccc(-c2snc3ncccc23)c1-c1nnn[nH]1 [Example 413, 3-isothiazolo[3,4-b]pyridin-3-yl-2-(1H-tetrazol-5-yl)benzenesulfonamide]	2.12	340	2.08	0.5859	4.688	9.375	
NS(=O)(=O)c1cccc(-c2snc3cccnc23)c1-c1nnn[nH]1 [Example 414, 3-isothiazolo[4,3-b]pyridin-3-yl-2-(1H-tetrazol-5-yl)benzenesulfonamide]	6.01	177	19.9	2.344	18.75	4.688	
Nc1ccc(-c2cccc(S(N)(=O)=O)c2-c2nnn[nH]2)c2ccncc12 [Example 415, 3-(8-amino-5-isoquinolyl)-2-(1H-tetrazol-5-yl)benzenesulfonamide]	0.58	32.3	1.1	0.5859	3.125	1.172	
Nc1cnc2cc(-c3cccc(S(N)(=O)=O)c3-c3nnn[nH]3)ccc2c1 [Example 416, 3-(3-amino-7-quinolyl)-2-(1H-tetrazol-5-yl)benzenesulfonamide]	2.42	56.5	13.7	2.344	25	6.25	
Nc1nc2ccc(-c3cccc(S(N)(=O)=O)c3-c3nnn[nH]3)cc2s1 [Example 417, 3-(2-amino-1,3-benzothiazol-6-yl)-2-(1H-tetrazol-5-yl)benzenesulfonamide]	0.76	49.8	8.53	1.953	9.375	2.344	
Nc1cccn2c(-c3cccc(S(N)(=O)=O)c3-c3nnn[nH]3)cnc12 [Example 418, 3-(8-aminoimidazo[1,2-a]pyridin-3-yl)-2-(1H-tetrazol-5-yl)benzenesulfonamide]	1.18	118	13	0.3906	6.25	6.25	
NS(=O)(=O)c1cccc(-c2cnc3n2CCCC3)c1-c1nnn[nH]1 [Example 419, 3-(5,6,7,8-tetrahydroimidazo[1,2-a]pyridin-3-yl)-2-(1H-tetrazol-5-yl)benzenesulfonamide]	51.9	1040	469	0.25	25	25	
Nc1ncc2ccc(-c3cccc(S(N)(=O)=O)c3-c3nnn[nH]3)cc2n1 [Example 420, 3-(2-Aminoquinazolin-7-yl)-2-(1H-tetrazol-5-yl)benzenesulfonamide]	4.74	217		1.563	18.75	9.375	30.7
NS(=O)(=O)c1cccc(-c2cccc3sc(Br)nc23)c1-c1nnn[nH]1 [Example 421, 3-(2-Bromobenzo[d]thiazol-4-yl)-2-(1H-tetrazol-5-yl)benzenesulfonamide]	0.291	18.8	2.3	3.125	>200	25	
NS(=O)(=O)c1cccc(-c2cccc3scnc23)c1-c1nnn[nH]1 [Example 422, 3-(Benzo[d]thiazol-4-yl)-2-(1H-tetrazol-5-yl)benzenesulfonamide]	1.3	56	22.6	3.125	100	25	

From US9708336B2, “Metallo-beta-lactamase inhibitors” (priority 2014, dated 2017)
